Source: article PMC6941952, “A homogeneous bioluminescent immunoassay to probe cellular signaling pathway regulation” (Communications Biology, 2020)
“And” between values parts separate entries of the source, which are not always exact repeats. Identical values can stand only once.

Test system: phospho-IκBα (Ser32)
Experiment: NanoBiT cell-based immunoassay, phosphorylated IκBα in MCF-7 cells
Parameters: species or system human
Conditions: for Fold change (TNF-treated /Non-treated): P-IkB; for P-IkB Average / Average: background subtracted
Experimental: Prior to NanoBiT Cell-Based Immunoassay, 50,000 cells were seeded in 160 µl of complete growth media per well of a 96-well plate and incubated overnight. The cells were checked under microscope and it was determined that 50,000 cells per well in 96-well plate is under 90% confluency for all cells tested. If necessary, the cell culture media were replaced with serum-free media after the cells were stably adherent on the plate and incubated overnight. To treat cells with activators or inhibitors, medium was changed to 30 µl of medium containing inhibitors. If activation of a specific pathway is needed, the cells were stimulated with 10 µl of medium containing activators. To lyse the cells, 10 µl of lysis buffer containing 0.1% digitonin diluted in 1X immunoassay buffer with protease and phosphatase inhibitors was added and the plates were mixed vigorously for 20 min. Then, 50 µl of an antibody mix containing two primary antibodies against the target protein and NanoBiT detecting antibodies (0.3 µl each per well), diluted in 1X immunoassay buffer was added to the lysates. The plates were incubated at 23 °C for 90 min, followed by the addition of 25 µl of Nano-Glo® reagent consisting of Nano-Glo® Luciferase Assay Substrate mixed with 1X immunoassay buffer. Luminescence was measured using a plate-reading luminometer.
In all, 50,000 MCF-7 cells were seeded in 160 µl complete growth medium per well of a 96-well plate and incubated overnight. Half of the cells were treated with 50 ng per ml TNFα and half with vehicle. Cells were lysed as described above and a mixture of NanoBiT secondary antibodies with primary antibodies at the matrix concentrations described in Fig. 2a were added. After 90 min incubation, the Nano-Glo® reagent was added to the reactions as described above and luminescence was measured using a plate-reading luminometer.
Single dose or dose response inhibitor treatments were performed prior to activation of the pathways as follows. For IκBα, the cells were treated in 30 µl medium with IKK16 or MG132 for 60 min before the addition of 10 µl of DMEM containing appropriate concentration of TNFα. To measure phosphorylation of AKT or STAT3, the corresponding NanoBiT immunoassays were developed with MCF-7 or A431 cells, respectively, according the same scheme used to develop the IκBα assay using the primary antibodies for AKT and STAT3 described in the reagents section. For the AKT assay, MCF-7 cells were incubated overnight in phenol-red free DMEM medium (Gibco #21063-029) without serum. Treatment with LY294002 was performed in 30 µl medium and cells were incubated for 60 min before the addition of 1 µM Insulin. To measure STAT3 phosphorylation, A431 cells were incubated overnight in DMEM medium without serum. […] After addition of the stimulators, the cells were incubated for additional times as follows. IκBα phosphorylation and degradation analyses required both time courses and single time points as described in figures. […] The NanoBiT immunoassay protocol was followed as described above.
All 96-well assay plates were read using a GloMax® 96 Microplate Luminometer from Promega. The instrument was set to 0.5 s integration time. In order to obtain net change of signal, the reagent background values (signal from the well containing all reagent except primary antibodies) were subtracted from the sample values. To plot and analyze the data, Microsoft Excel and GraphPad Prism® Software were used. IC50 values were determined by using a nonlinear regression fit to a sigmoidal dose response (variable slope).

[1] = Figure 2b, Ab incubation 5 min, listed as TNF
[2] = Figure 2b, Ab incubation 10 min, listed as TNF
[3] = Figure 2b, Ab incubation 60 min, listed as TNF
[4] = Figure 2b, Ab incubation 90 min, listed as TNF
[5] = Figure 2b, Ab incubation 120 min, listed as TNF
[6] = Figure 2b, Ab incubation 10 min
[7] = Figure 2b, Ab incubation 30 min
[8] = Figure 2b, Ab incubation 60 min
[9] = Figure 2b, Ab incubation 90 min
[10] = Figure 2b, Ab incubation 120 min
[11] = Figure 2c, Cell # 3500, listed as TNF
[12] = Figure 2c, Cell # 7000, listed as TNF
[13] = Figure 2c, Cell # 14000, listed as TNF
[14] = Figure 2c, Cell # 21000, listed as TNF
[15] = Figure 2c, Cell # 28000, listed as TNF
[16] = Figure 2c, Cell # 35000, listed as TNF
[17] = Figure 2c, Cell # 42000, listed as TNF
[18] = Figure 2c, Cell # 49000, listed as TNF
[19] = Figure 2c, Cell # 56000, listed as TNF
[20] = Figure 2c, Cell # 63000, listed as TNF
[21] = Figure 3a and 3b, listed as TNF
[22] = No MG132, TNF 2 min, listed as TNF
[23] = No MG132, TNF 4 min, listed as TNF
[24] = No MG132, TNF 10 min, listed as TNF
[25] = No MG132, TNF 12 min, listed as TNF
[26] = No MG132, TNF 15 min, listed as TNF
[27] = No MG132, TNF 30 min, listed as TNF
[28] = plate #1, IkB Ab #1 75 ng/ml, P-IkB Ab #1 75 ng/ml, TNF

## TNFα
[1]
  P-IkB Raw data: 13050
  P-IkB Subtract reagent background: 1653 and 2223 and 1733
[2]
  P-IkB Raw data: 15430
  P-IkB Subtract reagent background: 4075 and 4145 and 2725
Figure 2b, Ab incubation 30 min, listed as TNF
  P-IkB Subtract reagent background: 11622 and 12702 and 12152
[3]
  P-IkB Raw data: 35930
  P-IkB Subtract reagent background: 23000 and 23900 and 26790
[4]
  P-IkB Raw data: 44160
  P-IkB Subtract reagent background: 32005 and 32085 and 32105
[5]
  P-IkB Raw data: 26480
  P-IkB Subtract reagent background: 19503 and 18993 and 21543
Figure 2b, Ab incubation 5 min
  Fold change (TNF-treated /Non-treated): -51
  P-IkB Average: 1870
[6]
  Fold change (TNF-treated /Non-treated): 25
  P-IkB Average: 3648
[7]
  Fold change (TNF-treated /Non-treated): 10
  P-IkB Average: 12158
[8]
  Fold change (TNF-treated /Non-treated): 14
  P-IkB Average: 24563
[9]
  Fold change (TNF-treated /Non-treated): 13
  P-IkB Average: 32065
[10]
  Fold change (TNF-treated /Non-treated): 12
  P-IkB Average: 20013
[11]
  Raw data: 19860 and 20790
  Subtract background: 6010 and 6150
[12]
  Raw data: 22450 and 23090
  Subtract background: 8600 and 8450
[13]
  Raw data: 26500 and 26620
  Subtract background: 12650 and 11980
[14]
  Raw data: 26350 and 27260
  Subtract background: 12500 and 12620
[15]
  Raw data: 29180 and 29230
  Subtract background: 15330 and 14590
[16]
  Raw data: 32490 and 30000
  Subtract background: 18640 and 15360
[17]
  Raw data: 35680 and 35010
  Subtract background: 21830 and 20370
[18]
  Raw data: 36150 and 38410
  Subtract background: 22300 and 23770
[19]
  Raw data: 38800 and 38570
  Subtract background: 24950 and 23930
[20]
  Raw data: 40840 and 40330
  Subtract background: 26990 and 25690
Figure 2c, Cell # 3500
  Average: 6080
Figure 2c, Cell # 7000
  Average: 8525
Figure 2c, Cell # 14000
  Average: 12315
Figure 2c, Cell # 21000
  Average: 12560
Figure 2c, Cell # 28000
  Average: 14960
Figure 2c, Cell # 35000
  Average: 17000
Figure 2c, Cell # 42000
  Average: 21100
Figure 2c, Cell # 49000
  Average: 23035
Figure 2c, Cell # 56000
  Average: 24440
Figure 2c, Cell # 63000
  Average: 26340
Figure 3a and 3b
  P-IkB Average: 18603
[21]
  P-IkB Raw data: 40970 and 39480 and 37340
  P-IkB Subtract reagent background: 20310 and 18820 and 16680
No MG132, TNF 2 min
  P-IkB Average: 1340
[22]
  P-IkB Raw data: 17500 and 17960 and 17760 and 18420
  P-IkB Subtract reagent background: 930 and 1390 and 1190 and 1850
No MG132, TNF 4 min
  P-IkB Average: 2908
[23]
  P-IkB Raw data: 18550 and 18960 and 19930 and 20470
  P-IkB Subtract reagent background: 1980 and 2390 and 3360 and 3900
No MG132, TNF 6 min
  P-IkB Average: 9185
No MG132, TNF 6 min, listed as TNF
  P-IkB Raw data: 21700 and 24830 and 27800 and 28690
No MG132, TNF 8 min
  P-IkB Average: 17540
No MG132, TNF 8 min, listed as TNF
  P-IkB Raw data: 27040 and 33390 and 37550 and 38460
No MG132, TNF 10 min
  P-IkB Average: 21585
[24]
  P-IkB Raw data: 32290 and 37160 and 40510 and 42660
  P-IkB Subtract reagent background: 15720 and 20590 and 23940 and 26090
No MG132, TNF 12 min
  P-IkB Average: 19345
[25]
  P-IkB Raw data: 33820 and 35920 and 37120 and 36800
  P-IkB Subtract reagent background: 17250 and 19350 and 20550 and 20230
No MG132, TNF 15 min
  P-IkB Average: 13560
[26]
  P-IkB Raw data: 29860 and 30140 and 30400 and 30120
  P-IkB Subtract reagent background: 13290 and 13570 and 13830 and 13550
No MG132, TNF 30 min
  P-IkB Average: 3855
[27]
  P-IkB Raw data: 20170 and 19970 and 20370 and 21190
  P-IkB Subtract reagent background: 3600 and 3400 and 3800 and 4620
[28]
  Raw data: 32920
  Subtract reagent background: 14010
